{
  "source": "patent US20240100023A1",
  "about": "“Compositions and Methods For Treating Spinal Cord Injuries” (priority 2020, published 2024)",
  "key": {"BDNF and NGF mRNAs": {"system": "BDNF and NGF mRNAs", "assay": "BDNF and NGF mRNA prevalence in brain regions (anti-sense cRNA assays)", "assay_type": "in vivo", "settings": "for NGF message levels in the dentate gyrus granule cell layers: ampakine-stimulated versus vehicle-treated control; for BDNF and NGF mRNAs in layer II of the piriform cortex: systemic, CX516 30 mg/kg/day, CX691 3 mg/kg/day", "source_text": "Ampakines enhanced NGF mRNA somewhat more than that of BDNF."}, "[1]": {"system": "fragile X syndrome (FXS) patients", "settings": "in vivo; cited from earlier work"}},
  "data": [
    {"smiles": "O=C1c2cc3c(cc2OC2CCCN12)OCCO3", "note": "(stereo not drawn) [CX614, reference compound]", "values": [
      {"measurement": "Concentration at which seizure activity is seen in hippocampal slices", "setting": "hippocampal slices", "result": 16, "unit": "µM"}
    ]},
    {"smiles": "O=C(c1ccc2nonc2c1)N1CCCCC1", "note": "[CX691]", "values": [
      {"measurement": "NGF message levels in the dentate gyrus granule cell layers", "setting": "BDNF and NGF mRNAs", "result": "significantly enhanced"},
      {"measurement": "BDNF and NGF mRNAs in layer II of the piriform cortex", "setting": "BDNF and NGF mRNAs", "result": "significantly up-regulated"}
    ]},
    {"smiles": "O=C(c1ccc2nccnc2c1)N1CCCCC1", "note": "[CX516]", "values": [
      {"measurement": "NGF message levels in the dentate gyrus granule cell layers", "setting": "BDNF and NGF mRNAs", "result": "significantly enhanced"},
      {"measurement": "BDNF and NGF mRNAs in layer II of the piriform cortex", "setting": "BDNF and NGF mRNAs", "result": "significantly up-regulated"},
      {"measurement": "Memory, language use, attention, executive and overall functioning in FXS", "setting": "[1]", "result": "did not exhibit improved memory"}
    ]}
  ]
}
